From patent US20040248864A1, “Use of anthroquinones in the treatment of kidney disease” (priority 2001, published 2004)
Like-named read-outs stand apart in the source and are kept apart here.

Assays:
[1] = humans; cited from earlier work
[2] = test system: nephrotoxic nephritis; test: rat model of nephritis (nephrotoxic nephritis): proteinuria and renal histology (crescents); assay type: in vivo; conditions: for proteinuria compared to the control: diacerein 50, 100 and oral once a day, prednisolone 2 mg/kg
Experimental: Experiments were conducted, using a rat model of nephritis (nephrotoxic nephritis) (Karkar et al, Kidney International, 1997). This is an aggressive immune driven model which parallels clinical conditions such as lupus nephritis, glomerulonephritis, IgA nephropathy and other immune-mediated nephritic diseases.
[…] Development of nephrotoxic nephritis was measured by the degree of proteinuria (in the control group) at days 6 and 10, post-disease initiation and by renal histology at day 10, quantified by the number of damaged nephrons (crescents) per histology section. These end-points were used to determine the success of the diacerein treatment. Alongside diacerein treatment, a negative control (drug vehicle only) and positive control (2 mg/kg prednisolone) were tested.

[3] = PK profile: plasma concentration of rhein after oral dosing with diacerein; assay type: in vivo; conditions: rat
Experimental: FIG. 1 is a PK profile, i.e. a graph of plasma concentration of rhein (mg/ml) against time (min) post-dosing with 100, 200 and 300 mg/kg diacerein.
Consequently, the dosing for the nephrotoxic nephritis experiment was based around this dose range (see below).

[4] = test system: IL-1; conditions: Yaron et al 1999; Moldovan 2000; cited from earlier work
[5] = test system: inducible nitric oxide synthase; conditions: osteochondrocytes, IL-1b stimulated; Pelletier 1998; cited from earlier work
[6] = test system: MMPs 1, 3, 9 & 13 and pro-MMPs; conditions: Tamura et al 2001; cited from earlier work
[7] = test system: TIMP-1; conditions: Tamura et al 2001; cited from earlier work
[8] = day 6 post-disease initiation, significant at highest dose (p<0.01)
[9] = day 10 post-disease initiation, significant at top dose (p<0.01)

Structure (SMILES) | oral dose required to obtain therapeutic plasma concentrations of drug [1] | proteinuria compared to the control [2, 8] | nephron damage (crescents per histology section) ([2]; day 10 histology, 50 mg/kg diacerein) | nephron damage (crescents per histology section) ([2]; day 10 histology, 100 mg/kg diacerein, significant (p<0.05)) | nephron damage (crescents per histology section) ([2]; day 10 histology, 200 mg/kg diacerein) | proteinuria compared to the control [2, 9] | effect on both proteinuria and renal damage associated with nephrotoxic nephritis ([2]; overall summary of the study) | oral dose required to obtain therapeutic plasma concentrations of drug [3] | production of the pro-inflammatory cytokine IL-1 [4] | production of inducible nitric oxide synthase and production of nitric oxide [5] | effect on renal damage (histology) ([2]; day 10 histology, 2 mg/kg prednisolone) | production of key matrix metalloproteinases MMPs 1, 3, 9 & 13 and pro-MMPs [6] | production of tissue inhibitor of matrix MMP-1, TIMP-1 [7]
CC(=O)Oc1cccc2c1C(=O)c1c(OC(C)=O)cc(C(=O)O)cc1C2=O [diacerein] | 0.8 mg/kg | decreased compared to the control | decrease in nephron damage | decrease in nephron damage | slight increase again | dose-dependant decrease in proteinuria | significant effect | 100 to 200 mg/kg | reduce the production | reduce the production |  |  | 
C[C@]12C=CC(=O)C=C1CC[C@@H]1[C@@H]2[C@@H](O)C[C@@]2(C)[C@H]1CC[C@]2(O)C(=O)CO [prednisolone] |  | markedly reduced proteinuria |  |  |  | unexpected rebound above the control proteinuria levels |  |  |  |  | negligible |  | 
O=C(O)c1cc(O)c2c(c1)C(=O)c1cccc(O)c1C2=O [rhein] |  |  |  |  |  |  |  |  | reduce the production | reduce the production |  | down-regulates the production | increases the production
